Test results from ChEMBL document CHEMBL1141781, “Antineoplastic agents. 542. Isolation and structure of sesterstatin 6 from the Indian Ocean sponge Hyrtios erecta” (2005).
Values after ≈ are worked out from the molar mass of the structure shown.

Legend:
Assay type in all cases: functional
P388 = test: Growth inhibition of mouse P388 cells; conditions: read-out: ED50 (the source's name)
BXPC-3 = test: Growth inhibition of human BxPC3 cells
[1] = Growth inhibition of human KAT4 cells; conditions: KAT-4
SW-1736 = test: Growth inhibition of human SW1736 cells
NCI-H460 = test: Growth inhibition of human NCI-H460 cells
FaDu = test: Growth inhibition of human FADU cells
DU-145 = test: Growth inhibition of human DU145 cells
RPMI-7951 = test: Growth inhibition of human RPMI7951 cells
U-251 = test: Growth inhibition of human U251 cells

Compound	EC50 (P388)	GI50 (BXPC-3)	GI50 [1]	GI50 (SW-1736)	GI50 (NCI-H460)	GI50 (FaDu)	GI50 (DU-145)	GI50 (RPMI-7951)	GI50 (U-251)
CC1(C)[C@@H](O)CC[C@]2(C)[C@H]3C[C@@H](O)[C@]4(C)C5=C(CC[C@H]4[C@]3(C)CC[C@@H]12)COC5=O [SESTERSTATIN 1]	0.46 µg/mL (≈ 1.14 µM)								
C[C@]1(CO)CCC[C@]2(C)[C@H]3C[C@@H](O)[C@]4(C)C5=C(CC[C@H]4[C@]3(C)CC[C@@H]12)COC5=O [SESTERSTATIN 2]	4.2 µg/mL (≈ 10.4 µM)								
CC1(C)CCC[C@]2(C)[C@H]3C[C@@H](O)[C@]4(C)c5cocc5[C@H](O)C[C@H]4[C@]3(C)CC[C@@H]12 [SESTERSTATIN 4]	4.9 µg/mL (≈ 12.7 µM)	1.6 µg/mL (≈ 4.14 µM)	2 µg/mL (≈ 5.17 µM)	2.1 µg/mL (≈ 5.43 µM)	1.8 µg/mL (≈ 4.66 µM)	2 µg/mL (≈ 5.17 µM)	1.6 µg/mL (≈ 4.14 µM)		
CC1(C)CCC[C@]2(C)[C@H]3C[C@@H](O)[C@]4(C)c5cocc5[C@@H](O)C[C@H]4[C@]3(C)CC[C@@H]12 [SESTERSTATIN 5]	> 10 µg/mL	2.2 µg/mL (≈ 5.69 µM)			2.5 µg/mL (≈ 6.47 µM)	1.9 µg/mL (≈ 4.91 µM)	1.9 µg/mL (≈ 4.91 µM)	2.1 µg/mL (≈ 5.43 µM)	1.9 µg/mL (≈ 4.91 µM)
CC1(C)CCC[C@]2(C)[C@H]3C[C@@H](O)[C@]4(C)C5=C(C(=O)O[C@H]5O)[C@@H](O)C[C@H]4[C@]3(C)CC[C@@H]12 [SESTERSTATIN 6]	0.17 µg/mL (≈ 0.406 µM)	0.44 µg/mL (≈ 1.05 µM)	0.4 µg/mL (≈ 0.956 µM)	0.87 µg/mL (≈ 2.08 µM)	0.18 µg/mL (≈ 0.43 µM)	0.89 µg/mL (≈ 2.13 µM)	0.37 µg/mL (≈ 0.884 µM)		
C[C@@]1(CO)CCC[C@]2(C)[C@H]3C[C@@H](O)[C@]4(C)C5=C(CC[C@H]4[C@]3(C)CC[C@@H]12)COC5=O [SESTERSTATIN 3]	4.3 µg/mL (≈ 10.7 µM)								
